Results: patent publication US11000033B2, “Ketone or oxime compound, and herbicide” (NISSAN CHEMICAL CORPORATION, priority 2014, dated 2021)

What was measured:
Format in all cases: in vivo
soybean = experiment: Test Example 5: effect on crop by foliage application, plastic box (symbol d); conditions: 320 g/ha, 3 weeks after application
How it was run: (§1)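 Greenhouse test at 25° C. to 30° C. Seeds of crops and weeds were spot-sown in boxes of sterilized diluvial soil under roughly 1.5 cm soil cover, then grown for foliage treatment.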

Cyperus difformis = experiment: Test Example 3: herbicidal effect by foliage application, Wagner pot (symbol E); conditions: application herbicide amount 320 g/ha
How it was run: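 Foliar spray of a water-diluted emulsion at a predetermined herbicide amount, applied to 14-day-old plants. Seedlings were raised in flooded alluvial soil (0.1–0.5 cm water) at 25–30 °C in a greenhouse. Injury was rated after 3 weeks against fixed criteria.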

wheat = experiment: Test Example 4: effect on crop by soil treatment (symbol e); conditions: application herbicide amount 320 g/ha
How it was run: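 Plants are raised in a greenhouse (25° C. to 30° C.) from spot-sown seed, which sits under about 1.5 cm of sterilized diluvial soil in a box shared with weed species.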

Apera spica-venti = experiment: Test Example 4: herbicidal effect by soil treatment (symbol L); conditions: application herbicide amount 320 g/ha
How it was run: (§2)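 Seeds were sown in sterilized diluvial soil, covered with about 1.5 cm of soil, and the soil surface was sprayed with a water-diluted emulsion of the compound at a predetermined rate. Plants grew in a greenhouse at 25° C. to 30° C.; effects were scored visually 3 weeks after application.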

[1] = system: Echinochloa oryzacola Vasing.; experiment: Test Example 1: herbicidal activity, application before weed generation in submerged conditions (symbol A); conditions: application herbicide amount 320 g/ha
How it was run: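 Steps: alluvial soil flooded to 4 cm; weed seeds sown together; rice seedlings (2.5 leaf) transplanted; diluted emulsion applied to water surface the same day as sowing; plants grown at 25–30 °C in greenhouse; herbicidal effect rated on a 0–5 scale at 3 weeks.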

Chenopodium album = experiment: Test Example 5: herbicidal effect by foliage application, plastic box (symbol O); conditions: 320 g/ha, 3 weeks after application
How it was run: (§3)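 Herbicide, formulated as an emulsion and diluted in water, is sprayed onto the aerial parts of 14-day seedlings. These were grown at 25° C. to 30° C. in sterilized diluvial soil; effects are graded after 3 weeks.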

Galium spurium = experiment: Test Example 5: herbicidal effect by foliage application, plastic box (symbol Q); conditions: 320 g/ha, 3 weeks after application
How it was run: as §3

Amaranthus retroflexus = experiment: Test Example 4: herbicidal effect by soil treatment (symbol N); conditions: application herbicide amount 320 g/ha
How it was run: as §2

corn = experiment: Test Example 5: effect on crop by foliage application, plastic box (symbol c); conditions: 320 g/ha, 3 weeks after application
How it was run: as §1

Abutilon theophrasti = experiment: Test Example 4: herbicidal effect by soil treatment (symbol M); conditions: application herbicide amount 320 g/ha
How it was run: as §2

SMILES	d: soybean, effect on crop grade (soybean)	herbicidal effect on E, grade 0-5 (Cyperus difformis)	e: wheat, effect on crop grade (wheat)	L: Apera spica-venti, herbicidal effect grade (Apera spica-venti)	Herbicidal effect grade, A: Echinochloa oryzacola Vasing. [1]	O: Chenopodium album, herbicidal effect grade (Chenopodium album)	Q: Galium spurium, herbicidal effect grade (Galium spurium)	N: Amaranthus retroflexus, herbicidal effect grade (Amaranthus retroflexus)	c: corn, effect on crop grade (corn)	M: Abutilon theophrasti, herbicidal effect grade (Abutilon theophrasti)
CON=C(C)CC1CC(O)=C(c2c(C)cc(C#CC3CC3)cc2C)C1=O (mixture of isomers) [6-010]	3 (Herbicidal ratio of 40% or higher and lower than 70%)	5 (Herbicidal ratio of 90% or more (almost completely withered))	4 (Herbicidal ratio of 70% or higher and lower than 90%)	5 (Herbicidal ratio of 90% or more (almost completely withered))	5 (Herbicidal ratio of 90% or more (almost completely withered))	3 (Herbicidal ratio of 40% or higher and lower than 70%)	0 (Herbicidal ratio of 5% or lower (almost no effect))	1 (Herbicidal ratio of 5% or higher and lower than 20%)	4 (Herbicidal ratio of 70% or higher and lower than 90%)	3 (Herbicidal ratio of 40% or higher and lower than 70%)
COCC(=O)CC1CC(O)=C(c2c(C)cc(C)cc2C)C1=O (stereo not shown) [2-007]	0 (Herbicidal ratio of 5% or lower (almost no effect))	5 (Herbicidal ratio of 90% or more (almost completely withered))	0 (Herbicidal ratio of 5% or lower (almost no effect))	3 (Herbicidal ratio of 40% or higher and lower than 70%)	3 (Herbicidal ratio of 40% or higher and lower than 70%)	0 (Herbicidal ratio of 5% or lower (almost no effect))	0 (Herbicidal ratio of 5% or lower (almost no effect))	0 (Herbicidal ratio of 5% or lower (almost no effect))	1 (Herbicidal ratio of 5% or higher and lower than 20%)	0 (Herbicidal ratio of 5% or lower (almost no effect))
CCc1cc(C)cc(C)c1C1=C(O)CC(CC(C)=NOC)C1=O (stereo not shown) [6-007]	2 (Herbicidal ratio of 20% or higher and lower than 40%)	5 (Herbicidal ratio of 90% or more (almost completely withered))	5 (Herbicidal ratio of 90% or more (almost completely withered))	5 (Herbicidal ratio of 90% or more (almost completely withered))	5 (Herbicidal ratio of 90% or more (almost completely withered))	0 (Herbicidal ratio of 5% or lower (almost no effect))	0 (Herbicidal ratio of 5% or lower (almost no effect))	3 (Herbicidal ratio of 40% or higher and lower than 70%)	5 (Herbicidal ratio of 90% or more (almost completely withered))	4 (Herbicidal ratio of 70% or higher and lower than 90%)
CON=C(C)CC1CC(O)=C(c2c(C)cc(-c3ccccc3)cc2C)C1=O (stereo not shown) [6-015]	3 (Herbicidal ratio of 40% or higher and lower than 70%)	5 (Herbicidal ratio of 90% or more (almost completely withered))	0 (Herbicidal ratio of 5% or lower (almost no effect))	5 (Herbicidal ratio of 90% or more (almost completely withered))	5 (Herbicidal ratio of 90% or more (almost completely withered))	4 (Herbicidal ratio of 70% or higher and lower than 90%)	2 (Herbicidal ratio of 20% or higher and lower than 40%)	5 (Herbicidal ratio of 90% or more (almost completely withered))	5 (Herbicidal ratio of 90% or more (almost completely withered))	3 (Herbicidal ratio of 40% or higher and lower than 70%)
